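Five concentrations, 48 hours, 96-well plates. TGI is the concentration that stops growth completely.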 Where a SMILES comes first, the peptide text is derived from it. [ ]: non-standard residue; d: D form. The star is where a group is joined. NMeAc5c = CNC1(C(=O)O)CCCC1; Boc = CC(C)(C)OC(=O)*; OBn = c1ccc(CO*)cc1
The molecules below were run on A549 NSCLC (assay: NCI tumour cell line growth inhibition, 48 h).
With `CCCCCCCCCCCCCCNC(=O)CCC(NC(=O)c1ccc(N(C)Cc2cnc3nc(N)nc(N)c3n2)cc1)C(=O)NCCCCCCCCCCCCCC` (centres undefined) the TGI was > 36.3 µM. `COc1ccc(N/N=C2\CCOc3ccc(C)cc3C2=O)cc1` was tested, and the TGI was > 100 µM. `NC(N)=N/N=C/c1c(-c2ccc(N)cc2)nc2sccn12` gave a TGI of 47.6 µM. In the case of `CO/C(=N\N=C\c1ccc(C(F)(F)F)cc1)c1ccncc1`, the TGI is reported as > 10 µM. With `CCCCCCc1cc2cc(-c3csc(CC#N)n3)c(=O)oc2cc1O` the TGI was > 100 µM. With `COc1cc(Br)cc2cc(-c3cn4ccsc4n3)c(=O)oc12` the TGI was > 100 µM. `Nn1c(-c2ccccc2)nn(C(=O)c2ccccc2)c1=O` was tested, and the TGI was > 100 µM. With `O=c1[nH]c(Nc2cccc(CC(F)(F)F)c2)nc2nc[nH]c12` the TGI was > 100 µM. For `COc1ccc(-c2cc(O)c3nc4ccccc4n3c2)cc1`, the TGI was > 100 µM. For `O=C1CC(NC(=O)C(F)(F)F)c2c(Br)sc(N3CCNCC3)c21` (centres undefined), the TGI was > 100 µM. For `COc1cc2nc3n(c(=O)c2cc1OC)-c1ccc([N+](=O)[O-])cc1C3=O`, the TGI was > 100 µM. `CC(=O)OC1CC(OC2C(O)CC(OC3C(O)CC(OC4CCC5(C)C(CCC6C5CC(O)C5(C)C(C7=CC(=O)OC7)CCC65O)C4)OC3C)OC2C)OC(C)C1OC1OC(CO)C(O)C(O)C1O` (centres undefined) showed a TGI of 0.0399 µM. In the case of `ClCCN1CCC2(CC1)SSC1(CCN(CCCl)CC1)S2`, the TGI is reported as > 100 µM. For `C1CN(c2nc3c(nnc4nc(N5CCOCC5)sc43)s2)CCO1`, the TGI was > 100 µM. For `COc1ccc(C2CC(c3c(O)ccc4ccccc34)=NN2C(C)=O)cc1OC` (centres undefined), the TGI was > 100 µM. With `COC(=O)C1SC(SC)=NC12c1ccccc1Nc1ccccc12` (centres undefined) the TGI was > 100 µM. With `COc1ccc2cc(NC(=O)N/N=C\c3ccc([N+](=O)[O-])cc3)ccc2c1` the TGI was > 100 µM. In the case of `CCCN(C(=O)c1ccccc1)C(C#N)c1ccc(C(C#N)N(CCC)C(=O)c2ccccc2)cc1` (centres undefined), the TGI is reported as > 100 µM. With `C=CC1(C)CCC2C(=CCC3C2(C)CC(O)C(O)C3(C)COC2OC(C(=O)O)C(O)C(O)C2O)C1` (centres undefined) (tested in a mixture with another compound) the TGI was > 100 µM. `O=[N+]([O-])c1ccc2c(c1)/C(=N/N=C1c3ccccc3Cc3ccccc31)c1cc([N+](=O)[O-])cc([N+](=O)[O-])c1-2` showed a TGI of 25.3 µM. In the case of `CN(C(=O)C(Cc1ccccc1)NC(=O)OC(C)(C)C)C1(C(=O)NC(Cc2ccccc2)C(=O)OCc2ccccc2)CCCC1` (stereo not drawn) (Boc-Phe-[NMeAc5c]-Phe-OBn; configuration not given here), the TGI is reported as > 100 µM. In the case of `CC(C)=CCc1c2c(c3occ(-c4ccc(O)cc4)c(=O)c3c1O)CC(C(C)(C)O)O2` (centres undefined), the TGI is reported as 27.8 µM. For `COc1ccc(-c2c(C#N)c(-c3ccc(C)cc3)n(NS(=O)(=O)c3ccc(C)cc3)c(=O)c2C#N)cc1`, the TGI was > 100 µM. In the case of `CCOC(=O)C(SCCO)C(C(=O)OCC)n1cnc2c(=O)[nH]c(NC(C)=O)nc21` (centres undefined), the TGI is reported as > 100 µM. For `O=C(N/N=C(/COc1ccc(Cl)cc1)N=Cc1ccncc1)c1ccncc1`, the TGI was > 100 µM. `COc1cc(C2c3cc4c(cc3OC(N3CCOCC3)C2C)OCO4)ccc1O` (centres undefined) was tested, and the TGI was > 100 µM. In the case of `Cc1ccc(N=NC(=Nc2ccccc2)c2ccc(N(CCC#N)CCC#N)cc2)cc1`, the TGI is reported as 80.7 µM. For `Cc1ccccc1C(=O)N1CCc2c([nH]c3ccccc23)C1`, the TGI was > 100 µM. With `NC(=O)NCCCC(NC(=O)OCCCCn1ccc(=O)[nH]c1=O)C(=O)O` (centres undefined) the TGI was > 100 µM. With `Clc1ccccc1C(SCc1ccccc1)SCc1ccccc1` the TGI was > 100 µM. Work on `CC[C@@H]1CC[C@@H]2[C@H](CC[C@]3(C)[C@@H](OC(C)=O)CC[C@@H]23)[C@H]1COC(C)=O` yielded a TGI of 59.2 µM. `COC(=O)C([C@H](NC1(c2ccccc2)c2ccccc2-c2ccccc21)C(=O)OC)N(NC(=O)OCc1ccccc1)C(=O)OCc1ccccc1` (mixture of isomers) was tested, and the TGI was > 100 µM. With `COC(=O)c1cc(=O)nc2sc3cccc(C)c3n12` the TGI was > 100 µM.

These molecules were tested on BT-549 breast (assay: NCI tumour cell line growth inhibition, 48 h).
With `CCCCCCCCCCCCCCNC(=O)CCC(NC(=O)c1ccc(N(C)Cc2cnc3nc(N)nc(N)c3n2)cc1)C(=O)NCCCCCCCCCCCCCC` (centres undefined) the TGI was 41.1 µM. Molecule `COc1ccc(N/N=C2\CCOc3ccc(C)cc3C2=O)cc1` has a TGI of 87.5 µM. `NC(N)=N/N=C/c1c(-c2ccc(N)cc2)nc2sccn12` was tested, and the TGI was > 100 µM. In the case of `CO/C(=N\N=C\c1ccc(C(F)(F)F)cc1)c1ccncc1`, the TGI is reported as > 10 µM. With `CCCCCCc1cc2cc(-c3csc(CC#N)n3)c(=O)oc2cc1O` the TGI was > 60.2 µM. Molecule `COc1cc(Br)cc2cc(-c3cn4ccsc4n3)c(=O)oc12` has a TGI of 50.7 µM. With `Nn1c(-c2ccccc2)nn(C(=O)c2ccccc2)c1=O` the TGI was > 100 µM. `O=c1[nH]c(Nc2cccc(CC(F)(F)F)c2)nc2nc[nH]c12` was tested, and the TGI was > 100 µM. `COc1ccc(-c2cc(O)c3nc4ccccc4n3c2)cc1` was tested, and the TGI was > 100 µM. `O=C1CC(NC(=O)C(F)(F)F)c2c(Br)sc(N3CCNCC3)c21` (centres undefined) was tested, and the TGI was > 100 µM. For `COc1cc2nc3n(c(=O)c2cc1OC)-c1ccc([N+](=O)[O-])cc1C3=O`, the TGI was > 100 µM. With `CC(=O)OC1CC(OC2C(O)CC(OC3C(O)CC(OC4CCC5(C)C(CCC6C5CC(O)C5(C)C(C7=CC(=O)OC7)CCC65O)C4)OC3C)OC2C)OC(C)C1OC1OC(CO)C(O)C(O)C1O` (centres undefined) the TGI was 0.167 µM. `ClCCN1CCC2(CC1)SSC1(CCN(CCCl)CC1)S2` was tested, and the TGI was > 100 µM. `C1CN(c2nc3c(nnc4nc(N5CCOCC5)sc43)s2)CCO1` was tested, and the TGI was > 100 µM. For `COc1ccc(C2CC(c3c(O)ccc4ccccc34)=NN2C(C)=O)cc1OC` (centres undefined), the TGI was 43.9 µM. `COC(=O)C1SC(SC)=NC12c1ccccc1Nc1ccccc12` (centres undefined) was tested, and the TGI was 58.6 µM. For `COc1ccc2cc(NC(=O)N/N=C\c3ccc([N+](=O)[O-])cc3)ccc2c1`, the TGI was 76.5 µM. For `CCCN(C(=O)c1ccccc1)C(C#N)c1ccc(C(C#N)N(CCC)C(=O)c2ccccc2)cc1` (centres undefined), the TGI was > 100 µM. For `C=CC1(C)CCC2C(=CCC3C2(C)CC(O)C(O)C3(C)COC2OC(C(=O)O)C(O)C(O)C2O)C1` (centres undefined) (tested in a mixture with another compound), the TGI was > 100 µM. For `O=[N+]([O-])c1ccc2c(c1)/C(=N/N=C1c3ccccc3Cc3ccccc31)c1cc([N+](=O)[O-])cc([N+](=O)[O-])c1-2`, the TGI was 2.87 µM. In the case of `CN(C(=O)C(Cc1ccccc1)NC(=O)OC(C)(C)C)C1(C(=O)NC(Cc2ccccc2)C(=O)OCc2ccccc2)CCCC1` (stereo not drawn) (Boc-Phe-[NMeAc5c]-Phe-OBn; configuration not given here), the TGI is reported as > 100 µM. `CC(C)=CCc1c2c(c3occ(-c4ccc(O)cc4)c(=O)c3c1O)CC(C(C)(C)O)O2` (centres undefined) was tested, and the TGI was 31 µM. With `COc1ccc(-c2c(C#N)c(-c3ccc(C)cc3)n(NS(=O)(=O)c3ccc(C)cc3)c(=O)c2C#N)cc1` the TGI was > 100 µM. `CCOC(=O)C(SCCO)C(C(=O)OCC)n1cnc2c(=O)[nH]c(NC(C)=O)nc21` (centres undefined) was tested, and the TGI was > 100 µM. In the case of `O=C(N/N=C(/COc1ccc(Cl)cc1)N=Cc1ccncc1)c1ccncc1`, the TGI is reported as > 100 µM. For `COc1cc(C2c3cc4c(cc3OC(N3CCOCC3)C2C)OCO4)ccc1O` (centres undefined), the TGI was > 100 µM. With `Cc1ccc(N=NC(=Nc2ccccc2)c2ccc(N(CCC#N)CCC#N)cc2)cc1` the TGI was 47.3 µM. `Cc1ccccc1C(=O)N1CCc2c([nH]c3ccccc23)C1` showed a TGI of 42.8 µM. In the case of `NC(=O)NCCCC(NC(=O)OCCCCn1ccc(=O)[nH]c1=O)C(=O)O` (centres undefined), the TGI is reported as > 100 µM. For `Clc1ccccc1C(SCc1ccccc1)SCc1ccccc1`, the TGI was > 100 µM. For `CC[C@@H]1CC[C@@H]2[C@H](CC[C@]3(C)[C@@H](OC(C)=O)CC[C@@H]23)[C@H]1COC(C)=O`, the TGI was 87.9 µM. `COC(=O)C([C@H](NC1(c2ccccc2)c2ccccc2-c2ccccc21)C(=O)OC)N(NC(=O)OCc1ccccc1)C(=O)OCc1ccccc1` (mixture of isomers) was tested, and the TGI was > 100 µM. With `COC(=O)c1cc(=O)nc2sc3cccc(C)c3n12` the TGI was > 100 µM.

Each molecule was assayed on HCT-116 colon (assay: NCI tumour cell line growth inhibition, 48 h).
`CCCCCCCCCCCCCCNC(=O)CCC(NC(=O)c1ccc(N(C)Cc2cnc3nc(N)nc(N)c3n2)cc1)C(=O)NCCCCCCCCCCCCCC` (centres undefined) was tested, and the TGI was > 100 µM. `COc1ccc(N/N=C2\CCOc3ccc(C)cc3C2=O)cc1` was tested, and the TGI was > 100 µM. Molecule `NC(N)=N/N=C/c1c(-c2ccc(N)cc2)nc2sccn12` has a TGI of 59.2 µM. For `CO/C(=N\N=C\c1ccc(C(F)(F)F)cc1)c1ccncc1`, the TGI was > 10 µM. For `CCCCCCc1cc2cc(-c3csc(CC#N)n3)c(=O)oc2cc1O`, the TGI was > 100 µM. For `COc1cc(Br)cc2cc(-c3cn4ccsc4n3)c(=O)oc12`, the TGI was > 100 µM. In the case of `Nn1c(-c2ccccc2)nn(C(=O)c2ccccc2)c1=O`, the TGI is reported as > 100 µM. With `O=c1[nH]c(Nc2cccc(CC(F)(F)F)c2)nc2nc[nH]c12` the TGI was > 100 µM. For `COc1ccc(-c2cc(O)c3nc4ccccc4n3c2)cc1`, the TGI was > 100 µM. In the case of `O=C1CC(NC(=O)C(F)(F)F)c2c(Br)sc(N3CCNCC3)c21` (centres undefined), the TGI is reported as > 100 µM. In the case of `COc1cc2nc3n(c(=O)c2cc1OC)-c1ccc([N+](=O)[O-])cc1C3=O`, the TGI is reported as > 100 µM. `CC(=O)OC1CC(OC2C(O)CC(OC3C(O)CC(OC4CCC5(C)C(CCC6C5CC(O)C5(C)C(C7=CC(=O)OC7)CCC65O)C4)OC3C)OC2C)OC(C)C1OC1OC(CO)C(O)C(O)C1O` (centres undefined) gave a TGI of 0.139 µM. `ClCCN1CCC2(CC1)SSC1(CCN(CCCl)CC1)S2` was tested, and the TGI was > 100 µM. With `C1CN(c2nc3c(nnc4nc(N5CCOCC5)sc43)s2)CCO1` the TGI was > 100 µM. `COc1ccc(C2CC(c3c(O)ccc4ccccc34)=NN2C(C)=O)cc1OC` (centres undefined) was tested, and the TGI was 28.6 µM. With `COC(=O)C1SC(SC)=NC12c1ccccc1Nc1ccccc12` (centres undefined) the TGI was > 100 µM. `COc1ccc2cc(NC(=O)N/N=C\c3ccc([N+](=O)[O-])cc3)ccc2c1` was tested, and the TGI was > 100 µM. `CCCN(C(=O)c1ccccc1)C(C#N)c1ccc(C(C#N)N(CCC)C(=O)c2ccccc2)cc1` (centres undefined) was tested, and the TGI was > 100 µM. In the case of `C=CC1(C)CCC2C(=CCC3C2(C)CC(O)C(O)C3(C)COC2OC(C(=O)O)C(O)C(O)C2O)C1` (centres undefined) (tested in a mixture with another compound), the TGI is reported as > 100 µM. `O=[N+]([O-])c1ccc2c(c1)/C(=N/N=C1c3ccccc3Cc3ccccc31)c1cc([N+](=O)[O-])cc([N+](=O)[O-])c1-2` showed a TGI of 3.08 µM. `CN(C(=O)C(Cc1ccccc1)NC(=O)OC(C)(C)C)C1(C(=O)NC(Cc2ccccc2)C(=O)OCc2ccccc2)CCCC1` (stereo not drawn) (Boc-Phe-[NMeAc5c]-Phe-OBn; configuration not given here) was tested, and the TGI was > 100 µM. In the case of `CC(C)=CCc1c2c(c3occ(-c4ccc(O)cc4)c(=O)c3c1O)CC(C(C)(C)O)O2` (centres undefined), the TGI is reported as 45.3 µM. In the case of `COc1ccc(-c2c(C#N)c(-c3ccc(C)cc3)n(NS(=O)(=O)c3ccc(C)cc3)c(=O)c2C#N)cc1`, the TGI is reported as > 100 µM.
